According to publication PMC9428149, “Tackling recalcitrant Pseudomonas aeruginosa infections in critical illness via anti-virulence monotherapy” (Nature Communications, 2022):
In brackets after ≈: the same amount, converted by molar mass. Several values for one entry are separate records, joined by “and”; a condition that tells them apart may be missing. Identical values can stand only once. Like-named read-outs stand apart in the source and are kept apart here.

Experiments:
[1] = system: 16 MDR P. aeruginosa clinical isolates; experiment: Pyocyanin production in MDR clinical isolates; conditions: Pseudomonas aeruginosa, 18 h, Control about 100, replicates
Method: The over-day culture was grown to OD600nm 1.5., diluted again at 1:10,000 in 5 mL LB and incubated with 10 μM of the test compound or the vehicle control for 18 hours at 37 °C and 200 rpm in an incubator shaker. After 18 h, 1 mL of culture was centrifuged for 2 min at 20.000 x g. The supernatant was transferred to a new tube, 200 μL of this were loaded in a flat-bottom 96-well plate, and the pyocyanin levels were quantified by measuring at OD690nm in the infinite F200 plate reader using the Magellan software (Tecan, Switzerland). The same procedure was also followed for the pyocyanin production assessment for all the P. aeruginosa clinical isolates assessed in this study. The percent of pyocyanin was calculated compared to the PA14 culture grown in the absence of compounds.
Pyocyanin production was measured in 16 P.
aeruginosa clinical isolates 18hr post-growth in the presence or absence of 10 µM of each NAM
compound. The percent of pyocyanin production was calculated by comparing the same strain grown
in the presence of the vehicle control. b.

[2] = Solubility in iPBS pH 7.4 by HPLC; assay type: physicochemical; conditions: isotonic phosphate buffer (iPBS), aqueous with cosolvent or surfactant or cyclodextrin, kinetic from dmso stock; iPBS pH 7.4, HPLC; read-out: Solubility (M) in PBS
In short: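 Compounds from 10 mM DMSO stock shaken 4 h at room temperature in iPBS pH 7.4 (10 mM PBS, 2.7 mM KCl, 140 mM NaCl, 0.05% Tween), then filtered. Concentration measured by HPLC-UV against a known standard solution; solubility given as ratio of compound in test solution to standard.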

[3] = system: mvfR mutant constitutively expressing the pqsABCDE operon; assay type: cell-based; conditions: Pseudomonas aeruginosa, control about 100, single replicates (Figure 4a)
ΔmvfR biofilm = experiment: Biofilm formation of ΔmvfR mutant (off-target); conditions: Pseudomonas aeruginosa, PA14, 24 h, read-out: Biofilm formation, ΔmvfR + compound; PA14 about 100; single replicates (Figure 4c)
Method: Biofilm was grown in the 96-well microtiter plate at 37 °C for 24 h containing M63 minimal media in the presence of 10 µM of the compounds or vehicle. The biofilm grown with the vehicle was considered as a control. The percentage value was calculated in comparison to the PA14 control. a–c Data represent at least n = 3, each dot on the graph represents one biological replicate. The number of biological replicates for each compound and strain is depicted in the graph. The error bars denote ±SEM.
The overnight grown starter culture was diluted 1:1000 in 5 mL LB media in a glass tube and was incubated at 37 °C and 200 rpm in an incubator shaker until the culture reached an OD600nm 3.0. The culture was then diluted at 1:100 in M63 minimal media supplemented with 0.2% glucose, 0.5% Casamino Acids, and 1 mM MgSO4. Initiation of the Biofilm formation was performed in the 96 well plates; 200 µL of diluted culture was added in the wells with (10 µM) or without compounds. The cultures were allowed to grow at 37 °C in static conditions for 24 hours. Thereafter, planktonic culture was removed from the wells, and wells were washed three times with distilled water (DW). Biofilm was stained with 0.1% crystal violet and incubated for 15 min at room temperature (RT). Access dye was removed from the wells and washed off three times with DW, and 200 µL ethanol: acetone (80:20) was added to the wells. The plate was incubated for 30 min at RT, and the OD was measured by spectrophotometry at 570 nm in the infinite F200 plate reader using the Magellan software (Tecan, Switzerland). Percent biofilm formation was calculated in comparison to PA14 culture that was grown in the absence of compounds.

MvfR protein (MvfRC87) = target: T1, MvfR protein (MvfRC87) (Pseudomonas aeruginosa, UniProt Q9I4X0); assay type: binding; conditions: SPR
T1 construct: The MvfRC87 protein purified as in Xiao et. al., 2006; made in house
In short: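 MvfRC87 amine-coupled to a CM7 chip (3000–5000 RU) and binding measured by SPR. Double-reference-corrected responses 5 s before end of association plotted against concentration, for inhibitor alone and with native ligand PQS, compared with responses calculated for different binding sites.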

[4] = system: PA14 isogenic mutant ΔmvfR AT/P cells; experiment: AT/P cell formation in ΔmvfR mutant (off-target); conditions: Pseudomonas aeruginosa, PA14, 24 h, read-out: AT/P cell formation, ΔmvfR + compound; PA14 about 100; single replicates (Figure 4b)
[5] = system: pqsA promoter (PA14 PpqsA-GFPASV); experiment: pqsA-GFP reporter expression; assay type: cell-based, Pseudomonas aeruginosa; conditions: Pseudomonas aeruginosa; for activity at 50 µM: PA14, read-out: % Production pqsA-GFP; for IC50: PA14, read-out: IC50 pqsA-GFP expression, PA14, 13 concentrations
PA14 AT/P cells = experiment: AT/P cells formation assay in PA14; assay type: cell-based, Pseudomonas aeruginosa; conditions: for inhibition at 10 µM: Pseudomonas aeruginosa, PA14, 24 h, read-out: inhibition of AT/P cells formation
[6] = system: MvfR-regulated small molecules in PA14; experiment: Production of HAQs, 2-AA, DHQ and AA in PA14 cultures (LC-MS); conditions: Pseudomonas aeruginosa
Method: The HAQs HHQ, PQS, HQNO, and non-HAQs: 2-AA and DHQ produced by PA14 cells were quantified in the presence of NAMs. The overnight grown starter culture was diluted 1:100 in 5 mL LB media in a glass tube and was allowed to grow in the presence (50 µM) or absence of compound at 37 °C and 200 rpm in an incubator shaker until OD600 was 3. Bacterial cultures were subsequently mixed 1:1 (400 μL: 400 μL) with 100% methanol containing 20 ppm (20 μg mL^−1) of tetradeutero-PQS (PQS-D4) and 10 ppm of tetradeutero-HHQ (HHQ-D4) in a 1.5 mL Eppendorf tube. The mixture was vortexed for 5 seconds and spun down for 5 minutes at 12,000 x g. A 700 μL aliquot of the supernatant was removed and stored in glass vials at −20 °C until further liquid chromatography-mass spectrophotometry (LC/MS) analysis as previously described in Lepine et al., 2003[66]. LC/MC analysis was performed using a Micromass Quattro II triple quadrupole mass spectrometer (Micromass Canada, Pointe-Claire, Canada) in positive electrospray ionization mode, interfaced to an HP1100 HPLC equipped with a 4.5 × 150 mm reverse-phase C8 column.
GraphPad Prism 9.2.0 software was used to plot the IC50 curve against the percent inhibition of these small molecules’ production at each concentration.

[7] = system: pyocyanin production in PA14; experiment: Pyocyanin production assay; conditions: Pseudomonas aeruginosa; for activity at 50 µM: PA14, 18 h, read-out: % Production Pyocyanin; for IC50: PA14, read-out: IC50 pyocyanin production
[8] = read-out: Pyocyanin production relative to Control, clinical isolate LGR-4325
[9] = read-out: Pyocyanin production relative to Control, clinical isolate LGR-4326
[10] = read-out: Pyocyanin production relative to Control, clinical isolate LGR-4327
[11] = read-out: Pyocyanin production relative to Control, clinical isolate LGR-4328
[12] = read-out: Pyocyanin production relative to Control, clinical isolate LGR-4330
[13] = read-out: Pyocyanin production relative to Control, clinical isolate LGR-4331 (first section, r117)
[14] = read-out: Pyocyanin production relative to Control, clinical isolate LGR-4331 (second section, r140)
[15] = read-out: Pyocyanin production relative to Control, clinical isolate LGR-4333
[16] = read-out: Pyocyanin production relative to Control, clinical isolate LGR-4343
[17] = read-out: Pyocyanin production relative to Control, clinical isolate LGR-4344
[18] = read-out: Pyocyanin production relative to Control, clinical isolate LGR-4348
[19] = read-out: Pyocyanin production relative to Control, clinical isolate LGR-4356
[20] = read-out: Pyocyanin production relative to Control, clinical isolate LGR-4362
[21] = read-out: Pyocyanin production relative to Control, clinical isolate LGR-4363
[22] = read-out: Pyocyanin production relative to Control, clinical isolate LGR-4364 (first section, r326)
[23] = read-out: Pyocyanin production relative to Control, clinical isolate LGR-4364 (second section, r349)
[24] = read-out: DHQ, ΔmvfR-pqsABCD strain
[25] = read-out: PQS, ΔmvfR-pqsABCD strain
[26] = PA14, read-out: % Production 2-AA
[27] = PA14, read-out: % Production AA
[28] = PA14, read-out: % Production DHQ
[29] = PA14, read-out: % Production HHQ
[30] = PA14, read-out: % Production HQNO
[31] = PA14, read-out: % Production PQS

T1 sequence (Q9I4X0 87-332): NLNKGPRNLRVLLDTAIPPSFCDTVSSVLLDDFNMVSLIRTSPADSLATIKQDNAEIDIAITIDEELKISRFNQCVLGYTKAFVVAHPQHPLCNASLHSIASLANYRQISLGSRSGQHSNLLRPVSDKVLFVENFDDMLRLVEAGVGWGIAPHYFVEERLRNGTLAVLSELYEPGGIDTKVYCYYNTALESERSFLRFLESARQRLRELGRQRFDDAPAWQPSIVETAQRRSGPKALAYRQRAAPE

For N#Cc1ccc(NC(=O)CC(=O)Nc2ccc(Oc3ccccc3)cc2)cc1 [D57], the activity at 10 µM [1, 8] was 11%, the activity at 10 µM [1, 9] was 17.7% and the activity at 10 µM [1, 10] was 18.2%. For the same molecule, the activity at 10 µM [1, 11] was 23.1%, the activity at 10 µM [1, 12] was 41.2% and the activity at 10 µM [1, 13] was 24.2%. The activity at 10 µM [1, 14] was 11.3%, the activity at 10 µM [1, 15] was 13.5% and the activity at 10 µM [1, 16] was 20.7%. It also gave an activity at 10 µM [1, 17] of 23.5%, an activity at 10 µM [1, 18] of 17.8% and an activity at 10 µM [1, 19] of 11%. For the same molecule, the activity at 10 µM [1, 20] was 33.9%, the activity at 10 µM [1, 21] was 20.9% and the activity at 10 µM [1, 22] was 21.8%. It also gave an activity at 10 µM [1, 23] of 27.4%, a solubility at 4 h [2] of 7e-06 M (≈ 2.6 µg/mL) and an activity at 50 µM [3, 24] of 98.7%. It also gave an activity at 50 µM ([3]; read-out: HHQ, ΔmvfR-pqsABCD strain) of 92.2%, an activity at 50 µM ([3]; read-out: HQNO, ΔmvfR-pqsABCD strain) of 96.6% and an activity at 50 µM [3, 25] of 82.3%. For the same molecule, the activity at 10 µM (ΔmvfR biofilm) was 23.6%, the “Response Unit (RU)” value (MvfR protein (MvfRC87); Concentration 1.00E-05 M) was 33.5 RU and the “Response Unit (RU)” value (MvfR protein (MvfRC87); Concentration 1.00E-06 M) was 18 RU. For the same molecule, the “Response Unit (RU)” value (MvfR protein (MvfRC87); Concentration 1.00E-07 M) was 5.7 RU, the “Response Unit (RU)” value (MvfR protein (MvfRC87); Concentration 1.00E-08 M) was 1 RU and the “Response Unit (RU)” value (MvfR protein (MvfRC87); Concentration 3.16E-06 M) was 26.4 RU. The “Response Unit (RU)” value (MvfR protein (MvfRC87); Concentration 3.16E-07 M) was 10.4 RU, the “Response Unit (RU)” value (MvfR protein (MvfRC87); Concentration 3.16E-08 M) was 2.9 RU and the activity at 10 µM [4] was 32%. The activity at 50 µM [5] was 4%, the IC50 [5] was 430 nM and the inhibition at 10 µM (PA14 AT/P cells) was no less than 76%. For the same molecule, the activity at 50 µM [6, 26] was 38%, the activity at 50 µM [6, 27] was 298% and the activity at 50 µM [6, 28] was 65%. The activity at 50 µM [6, 29] was 58%, the activity at 50 µM [6, 30] was 54% and the activity at 50 µM [6, 31] was 36%. It also gave an activity at 50 µM [7] of 6% and an IC50 [7] of 240 nM.

N#Cc1ccc(NC(=O)CC(=O)Nc2ccc(C(F)(F)F)cc2)cc1 [D69] gave an activity at 10 µM [1, 8] of 6.19%, an activity at 10 µM [1, 9] of 4.51% and an activity at 10 µM [1, 10] of 7.7%. For the same molecule, the activity at 10 µM [1, 11] was 29.6%, the activity at 10 µM [1, 12] was 12.9% and the activity at 10 µM [1, 13] was 9.26%. It also gave an activity at 10 µM [1, 14] of 4.8%, an activity at 10 µM [1, 15] of 6.7% and an activity at 10 µM [1, 16] of 10.8%. The activity at 10 µM [1, 17] was 11.6%, the activity at 10 µM [1, 18] was 7.58% and the activity at 10 µM [1, 19] was 6.29%. It also gave an activity at 10 µM [1, 20] of 12.3%, an activity at 10 µM [1, 21] of 9.09% and an activity at 10 µM [1, 22] of 10.1%. For the same molecule, the activity at 10 µM [1, 23] was 11.1%, the solubility at 4 h [2] was 2.1e-05 M (≈ 7.29 µg/mL) and the activity at 50 µM [3, 24] was 112%. The activity at 50 µM [3, 25] was 90.7%, the activity at 10 µM (ΔmvfR biofilm) was 24.2% and the “Response Unit (RU)” value (MvfR protein (MvfRC87); Concentration 1.00E-05 M) was 30 RU. The “Response Unit (RU)” value (MvfR protein (MvfRC87); Concentration 1.00E-06 M) was 22.4 RU, the “Response Unit (RU)” value (MvfR protein (MvfRC87); Concentration 1.00E-07 M) was 8.9 RU and the “Response Unit (RU)” value (MvfR protein (MvfRC87); Concentration 1.00E-08 M) was 1.7 RU. For the same molecule, the “Response Unit (RU)” value (MvfR protein (MvfRC87); Concentration 3.16E-06 M) was 27.3 RU, the “Response Unit (RU)” value (MvfR protein (MvfRC87); Concentration 3.16E-07 M) was 15.6 RU and the “Response Unit (RU)” value (MvfR protein (MvfRC87); Concentration 3.16E-08 M) was 4.1 RU. For the same molecule, the activity at 10 µM [4] was 30.1%, the activity at 50 µM [5] was 2% and the IC50 [5] was 1700 nM. For the same molecule, the “AT/P cells formation, percentage of control (single replicates)” value (PA14 AT/P cells; PA14, 10 μg mL^−1 meropenem, 10 µM compound, 24 h, control PA14 + vehicle) was 16.39% and 11.56%, the inhibition at 10 µM (PA14 AT/P cells) was no less than 76% and the activity at 50 µM [6, 26] was 15%. The activity at 50 µM [6, 27] was 920%, the activity at 50 µM [6, 28] was 13% and the activity at 50 µM [6, 29] was 6%. For the same molecule, the activity at 50 µM [6, 30] was 40%, the activity at 50 µM [6, 31] was 16% and the inhibition at 50 µM ([6]; PA14, read-out: HHQ production inhibition) was 89 to 99%. For the same molecule, the inhibition at 50 µM ([6]; PA14, read-out: HQNO production inhibition) was 40 to 92%, the inhibition at 50 µM ([6]; PA14, read-out: PQS production inhibition) was 76 to 97% and the inhibition at 50 µM ([6]; PA14, read-out: inhibition of 2-AA production) was 82 to 95%. For the same molecule, the inhibition at 50 µM ([6]; PA14, read-out: inhibition of DHQ production) was 82 to 96%, the activity at 50 µM [7] was 4% and the IC50 [7] was 960 nM.
